Measurements reported in patent US20250263376A1, “(E)-N-CINNAMOYLAMINOALKANOLS WITH MELANOGENESIS INHIBITORY ACTIVITY” (Uniwersytet Jagiellonski, priority 2024, published 2025).

Tests used:
[1] = test system: B16-F10 murine melanoma cell line; experiment: Cytotoxicity (MTT) in B16-F10 murine melanoma cells; assay type: cell-based; settings: 48 h
Method: Cytotoxicity Assessment in the B16-F10 Murine Melanoma Cell Line (ATTC CRL-6745)—Preliminary Safety Assessment for Subsequent Studies
In order to determine safe doses of compounds for testing the inhibition of melanogenesis in a murine melanoma cell line, cytotoxicity tests were performed. Cytotoxicity was determined by the colorimetric method using MTT ([3-(4,5-dimethyl-2-thiazolyl)-2,5-diphenyl-2H-tetrazolium bromide, Sigma M5655). For this purpose, cells were transferred to 96-well plates in an amount of 5000/well. After 24 h of culture in an incubator in F10-Ham medium with 1% FBS, the tested compounds at various concentrations were added to the wells together with fresh medium. DMSO was added to the medium in a negative control. The MTT test was performed after further culture for 48 h. Then the medium was removed and the formed formazan crystals were dissolved in DMSO. The absorbance was measured at 570 nm in a plate reader and the result was compared to the control (DMSO), which was 100%. The percentage of viability was calculated using the formula: [AT/AC*100], where AT is the absorbance of the test sample, AC—absorbance of the control sample.

S. typhimurium TA98 = experiment: Ames microplate test, TA98; assay type: cell-based, Salmonella typhimurium
Method: (§1) Bacteria were grown overnight in growth medium.

CHO-K1 cells = experiment: Cytotoxicity (MTT) in CHO-K1 cells before the micronucleus test; assay type: cell-based, Chinese hamster; settings: 24 hours
Method: The assay was performed using a Chinese hamster ovary cell line (CHO-K1) purchased from the American Type Culture Collection (ATCC). The cells were cultured in F-12K medium with the addition of 10% fetal bovine serum (FBS) and antibiotics (streptomycin/penicillin) in an incubator at 37° C. and 5% CO2 concentration). Before the actual micronucleus test, a cytotoxicity assessment was performed to ensure that the actual test was performed only at safe concentrations. For this purpose, cells were transferred to 96-well plates and incubated with the tested compounds for 24 hours. After this time, the MTT test was performed and cell viability was assessed in comparison to the control group (cells cultured with DMSO at the same concentration as in the case of the tested samples).

E. coli WP2 = experiment: Ames microplate test, E. coli WP2;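 also: bacteria exposed to compound for 90 min at 37 °C in 24-well plates, then transferred with indicator medium to 384-well plates and incubated 48 h before yellow well counting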
[2] = Lipophilicity coefficient RM0 by reversed phase thin layer chromatography; assay type: physicochemical; settings: RP-18 TLC, methanol/phosphate buffer pH=7.4
Method: Confirmation of the identity and purity of the obtained compounds consisted in the registration and interpretation of 1H NMR and 13C NMR spectra (the spectra were recorded using an ECZR 500 MHZ (JEOL) series FT-NMR spectrophotometer), as well as the registration and interpretation of LC-MS spectra (the spectra were recorded using Acquita UPLC system (Waters) coupled with a Waters TQD mass spectrometer). The melting point was measured using the open capillary method in the IA9300 device (Electrothermal). The lipophilicity coefficient RM0 was determined by reversed phase thin layer chromatography. In the study, aluminum plates 20×20 cm covered with modified silica gel RP-18 F254 (Merck) were used as the solid phase. The mobile phase consisted of solutions of methanol and 100 mM phosphate buffer (pH=7.4), characterized by a variable methanol content ranging from 95 to 65% (v/v). The tested compounds were dissolved in methanol to obtain solutions with a concentration of 1 mg/mL. Then, […] of the solutions prepared in this way were transferred to the starting line on aluminum plates, which were then placed in chromatographic chambers previously saturated with mobile phase vapors for at least 1 hour. All activities, including the development of chromatograms, were carried out at room temperature. After developing the chromatograms to approximately 1-2 cm from the end of the plate, the plates were dried and then the distance traveled by the tested compounds was visualized under UV light (λ=254 nm). The experiment was performed in duplicate for the specified conditions. For all samples, Rf was calculated according to the formula Rf=a/b, where a—the distance traveled by the tested compound, b—the distance traveled by the mobile phase. Then, the RM parameter was calculated for all samples according to the formula RM=log (1/Rf−1), obtaining a linear relationship between the RM values and the methanol concentration in the mobile phase. The log P coefficient was also calculated using the following computer programs: ACD/ChemSketch 2020.1.2 and ChemDraw 20.0.0.41.

S. typhimurium TA1535 = experiment: Ames microplate test, TA1535;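 also: bacteria exposed 90 min at 37 °C in exposure medium, then 48 h in indicator medium in 384-well plates, yellow (revertant) wells counted per condition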
tyrosinase from mushroom [3] = biological target: T1, tyrosinase from mushroom (Agaricus bisporus, UniProt C7FF04); experiment: Inhibition of commercial mushroom tyrosinase, substrate L-tyrosine; assay type: biochemical; settings: 500 μM; read-out: Tyrosinase inhibition with L-tyrosine [%]
T1 sequence (C7FF04 2-392): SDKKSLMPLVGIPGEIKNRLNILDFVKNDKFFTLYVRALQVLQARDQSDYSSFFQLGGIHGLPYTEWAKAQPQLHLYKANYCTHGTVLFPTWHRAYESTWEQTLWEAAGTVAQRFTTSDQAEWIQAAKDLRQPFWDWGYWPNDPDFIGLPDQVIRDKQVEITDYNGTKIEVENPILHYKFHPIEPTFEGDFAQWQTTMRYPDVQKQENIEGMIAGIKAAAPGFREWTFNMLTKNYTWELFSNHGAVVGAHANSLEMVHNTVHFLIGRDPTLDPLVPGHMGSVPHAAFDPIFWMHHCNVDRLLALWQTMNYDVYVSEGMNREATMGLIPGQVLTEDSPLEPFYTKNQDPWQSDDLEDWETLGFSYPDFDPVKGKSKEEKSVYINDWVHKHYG
T1 sequence (G1K3P4 entry or part of it, further chain): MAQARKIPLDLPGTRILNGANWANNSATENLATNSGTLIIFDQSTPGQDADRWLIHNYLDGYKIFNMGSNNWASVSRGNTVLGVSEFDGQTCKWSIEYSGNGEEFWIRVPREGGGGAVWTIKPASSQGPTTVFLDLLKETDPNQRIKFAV
Method: (§2) Studies on the Inhibition of the Activity of Commercial Tyrosinase from Mushroom (Sigma: T3824)
(§3) The following substrates were used for the enzymatic reaction: L-tyrosine and L-3,4-dihyroxyphenylalanine (L-DOPA). Both substrates were used in independent experiments. According to the literature, the use of L-DOPA enables the assessment of tyrosinase diphenolase activity, and L-tyrosine—the tyrosinase monophenolase activity. The determinations were performed in 96-well plates, in each well there was placed: 170 μL or 127.5 μL of 50 mM phosphate buffer (pH=6.8) with tyrosinase (1U/well or 3U/well) and 10 μL of a solution of the tested compound in DMSO (the final concentration in the well was 500 μM, 250 μM or 125 μM). The negative control used 10 u L of pure solvent (DMSO). To initiate the reaction, an appropriate substrate was added: L-tyrosine (62.5 μL of solution in phosphate buffer) or L-DOPA (20 μL of solution in phosphate buffer). After a 25-minute incubation, the absorbance was measured at 475 nm using a microplate reader. The percentage of inhibition of tyrosinase activity was calculated using the formula: [(AC−AT)/[…], where AC—is the absorbance of the negative control, AT—is the absorbance of the sample containing the tested compound.

tyrosinase from mushroom [4] = biological target: T1, tyrosinase from mushroom; experiment: Inhibition of commercial mushroom tyrosinase, substrate L-DOPA; assay type: biochemical; settings: 500 μM; read-out: Tyrosinase inhibition with L-DOPA [%]
Method: as §2, §3

S. typhimurium TA100 = experiment: Ames microplate test, TA100; assay type: cell-based, Salmonella typhimurium
S. typhimurium TA1537 = experiment: Ames microplate test, TA1537; assay type: cell-based, Salmonella typhimurium
Method: as §1

For `CCC(O)CNC(=O)/C=C/c1ccc(Cl)cc1` (stereo not drawn) [Compound A-67, (2E)-3-(4-chlorophenyl)-N-(2-hydroxybutyl)prop-2-enamide], the “Cytotoxicity study in B16F10 cells, % viability” value (“Cytotoxicity study … % viability” below) ([1]; 150 μM) was 73.6%, the “Cytotoxicity study … % viability” value ([1]; 200 μM) was 87.8% and the “Cytotoxicity study … % viability” value ([1]; 250 μM) was 84.4%. The “Increase in the number of yellow wells compared to the reference level, TA98” value (from here on “Increase in the number of yellow wells … TA98”) (S. typhimurium TA98; 0.5 mM, + S9) was 0.31, the “Increase in the number of yellow wells … TA98” value (S. typhimurium TA98; 0.5 mM, without S9) was 0.27 and the “Increase in the number of yellow wells … TA98” value (S. typhimurium TA98; 1.0 mM, + S9) was 0.94. For the same compound, the “Increase in the number of yellow wells … TA98” value (S. typhimurium TA98; 1.0 mM, without S9) was 1.07, the “Increase in the number of yellow wells … TA98” value (S. typhimurium TA98; 2.0 mM, + S9) was 1.04 and the “Increase in the number of yellow wells … TA98” value (S. typhimurium TA98; 2.0 mM, without S9) was 1.07. For the same compound, the “% Viability [mean], CHO-K1” value (CHO-K1 cells; 100 μM) was 96.0%, the “% Viability [mean], CHO-K1” value (CHO-K1 cells; 150 μM) was 90.3% and the “% Viability [mean], CHO-K1” value (CHO-K1 cells; 200 μM) was 84.0%. The “Increase in the number of yellow wells compared to the reference level, E. coli WP2” value (“Increase in the number … E. coli WP2” below) (E. coli WP2; 0.5 mM, + S9) was 0.83, the “Increase in the number … E. coli WP2” value (E. coli WP2; 0.5 mM, without S9) was 0.50 and the “Increase in the number … E. coli WP2” value (E. coli WP2; 1.0 mM, + S9) was 0.42. For the same compound, the “Increase in the number … E. coli WP2” value (E. coli WP2; 1.0 mM, without S9) was 1.00, the “Increase in the number … E. coli WP2” value (E. coli WP2; 2.0 mM, + S9) was 1.42 and the “Increase in the number … E. coli WP2” value (E. coli WP2; 2.0 mM, without S9) was 0.83. For the same compound, the RM0 [2] was 2.46, the “Increase in the number of yellow wells compared to the reference level, TA1535” value (from here on “Increase in the number of yellow wells … TA1535”) (S. typhimurium TA1535; 0.5 mM, + S9) was 0.27 and the “Increase in the number of yellow wells … TA1535” value (S. typhimurium TA1535; 0.5 mM, without S9) was 0.30. For the same compound, the “Increase in the number of yellow wells … TA1535” value (S. typhimurium TA1535; 1.0 mM, + S9) was 0.54, the “Increase in the number of yellow wells … TA1535” value (S. typhimurium TA1535; 1.0 mM, without S9) was 0.45 and the “Increase in the number of yellow wells … TA1535” value (S. typhimurium TA1535; 2.0 mM, + S9) was 0.13. The “Increase in the number of yellow wells … TA1535” value (S. typhimurium TA1535; 2.0 mM, without S9) was 1.04, the inhibition at 500 µM (tyrosinase from mushroom [3]) was 79.2 ± 1.2% and the inhibition at 500 µM (tyrosinase from mushroom [4]) was 60.8 ± 1.99%. The “Increase in the number of yellow wells compared to the reference level, TA100” value (from here on “Increase in the number of yellow wells … TA100”) (S. typhimurium TA100; 0.5 mM, + S9) was 0.78, the “Increase in the number of yellow wells … TA100” value (S. typhimurium TA100; 0.5 mM, without S9) was 1.53 and the “Increase in the number of yellow wells … TA100” value (S. typhimurium TA100; 1.0 mM, + S9) was 0.64. For the same compound, the “Increase in the number of yellow wells … TA100” value (S. typhimurium TA100; 1.0 mM, without S9) was 0.93, the “Increase in the number of yellow wells … TA100” value (S. typhimurium TA100; 2.0 mM, + S9) was 0.31 and the “Increase in the number of yellow wells … TA100” value (S. typhimurium TA100; 2.0 mM, without S9) was 0.80. The “Increase in the number of yellow wells compared to the reference level, TA1537” value (“Increase in the number of yellow wells … TA1537” for short) (S. typhimurium TA1537; 0.5 mM, + S9) was 1.00, the “Increase in the number of yellow wells … TA1537” value (S. typhimurium TA1537; 0.5 mM, without S9) was 0.00 and the “Increase in the number of yellow wells … TA1537” value (S. typhimurium TA1537; 1.0 mM, + S9) was 1.33. For the same compound, the “Increase in the number of yellow wells … TA1537” value (S. typhimurium TA1537; 1.0 mM, without S9) was 0.18, the “Increase in the number of yellow wells … TA1537” value (S. typhimurium TA1537; 2.0 mM, + S9) was 0.00 and the “Increase in the number of yellow wells … TA1537” value (S. typhimurium TA1537; 2.0 mM, without S9) was 0.82.
